Assays:
[1] = biological target: T1, Solute carrier family 22 member 6 (Homo sapiens, UniProt Q4U2R8); experiment: TP_TRANSPORTER: inhibition of PAH uptake in OAT1-expressing CHO cells; type: functional, cell-based
T1 sequence (Q4U2R8 whole entry): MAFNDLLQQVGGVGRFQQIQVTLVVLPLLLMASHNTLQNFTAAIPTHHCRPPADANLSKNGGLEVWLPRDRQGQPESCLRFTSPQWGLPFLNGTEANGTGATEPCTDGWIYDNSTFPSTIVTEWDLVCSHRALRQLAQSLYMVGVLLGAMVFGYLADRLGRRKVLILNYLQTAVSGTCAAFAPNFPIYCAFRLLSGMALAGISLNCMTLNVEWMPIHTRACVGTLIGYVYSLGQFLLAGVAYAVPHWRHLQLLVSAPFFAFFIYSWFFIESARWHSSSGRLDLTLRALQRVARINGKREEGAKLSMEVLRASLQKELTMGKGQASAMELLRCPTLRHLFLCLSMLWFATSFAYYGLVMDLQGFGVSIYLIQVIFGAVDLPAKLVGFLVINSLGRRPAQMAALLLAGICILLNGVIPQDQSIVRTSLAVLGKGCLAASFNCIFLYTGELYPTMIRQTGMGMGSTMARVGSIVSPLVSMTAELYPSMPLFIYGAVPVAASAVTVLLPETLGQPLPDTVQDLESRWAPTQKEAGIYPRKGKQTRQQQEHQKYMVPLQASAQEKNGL

[2] = biological target: T1, Solute carrier family 22 member 6; experiment: TP_TRANSPORTER: inhibition of PAH uptake in OAT1-COS7 cells; type: functional, cell-based, COS-7
[3] = biological target: T1, Solute carrier family 22 member 6; experiment: TP_TRANSPORTER: trans-stimulation in OAT1-COS7 cells; type: functional, cell-based, COS-7

Compound: N[C@@H](CSc1nc2ccccc2s1)C(=O)O
- IC50 [1]: 9.9 µM

Compound: N[C@H](CS/C(Cl)=C/Cl)C(=O)O
- IC50 [2]: 208 µM

Compound: N[C@H](CSc1nc2ccccc2s1)C(=O)O [BENZOTHIAZOLYLCYSTEINE]
- IC50 [3]: 9.9 µM

Source: ChEMBL document CHEMBL2074104, “Interaction of cysteine conjugates with human and rabbit organic anion transporter 1” (J Pharmacol Exp Ther, 2003)
